Data: patent publication US5744478A, “Thiazolo [3,2-a] quinoline and thiazolo [3,2-a] naphthyridine derivatives” (Bayer Aktiengesellschaft, priority 1994, dated 1998)
In brackets after ≈: the same amount, converted by molar mass.

Experiments:
Assay in all cases: MIC by serial dilution on Iso-Sensitest Agar
Assay type in all cases: cell-based
E. coli ATCC 25922 = conditions: Escherichia coli, ATCC25922, 37° C., about 20 hours, about 10^4 colony-forming particles
Method: (§1) The minimum inhibitory concentrations (MIC) of the compounds according to the invention were determined by serial dilution methods on Iso-Sensitest Agar (Oxoid). For each test substance, a number of agar plates were prepared which, in each case at double the dilution, contained decreasing concentrations of the active compound. The agar plates were inoculated using a multipoint inoculator (Denley). For inoculation, overnight cultures of the pathogens were used which had previously been diluted such that each inoculation point contained about 10^4 colony-forming particles. The inoculated agar plates were incubated at 37° C., and the bacterial growth was read off after about 20 hours. The MIC value (μg/ml) indicates the lowest active compound concentration at which no growth was to be observed using the naked eye.

E. coli Neumann = conditions: Escherichia coli, 37° C., about 20 hours, about 10^4 colony-forming particles
Method: as §1

[1] = test system: Enterococcus faecalis 27101; conditions: 37° C., about 20 hours, about 10^4 colony-forming particles
Method: as §1

[2] = test system: Enterococcus faecalis 9790; conditions: 37° C., about 20 hours, about 10^4 colony-forming particles
Method: as §1

Klebsiella pneumonia 63 = conditions: Klebsiella pneumoniae, 37° C., about 20 hours, about 10^4 colony-forming particles
Method: as §1

[3] = test system: Klebsiella pneumonia 8085; conditions: Klebsiella pneumoniae, 37° C., about 20 hours, about 10^4 colony-forming particles
Method: as §1

Micrococcus luteus 9341 = conditions: 37° C., about 20 hours, about 10^4 colony-forming particles
Method: as §1

Providencia sp. 12012 = conditions: 37° C., about 20 hours, about 10^4 colony-forming particles
Method: as §1

[4] = test system: Staphylococcus aureus 133; conditions: 37° C., about 20 hours, about 10^4 colony-forming particles
Method: as §1

[5] = test system: Staphylococcus aureus ATCC29213; conditions: 37° C., about 20 hours, about 10^4 colony-forming particles
Method: as §1

[6] = test system: Staphylococcus aureus ICB 25701; conditions: ICB25701, 37° C., about 20 hours, about 10^4 colony-forming particles
Method: as §1

[7] = test system: Staphylococcus aureus ICB 25768; conditions: ICB25768, 37° C., about 20 hours, about 10^4 colony-forming particles
Method: as §1

Row | Compound | MIC (E. coli ATCC 25922) | MIC (E. coli Neumann) | MIC [1] | MIC [2] | MIC (Klebsiella pneumonia 63) | MIC [3] | MIC (Micrococcus luteus 9341) | MIC (Providencia sp. 12012) | MIC [4] | MIC [5] | MIC [6] | MIC [7]
1 | O=C(O)c1c(=O)c2cc(F)c(N3C[C@@H]4CCCN[C@@H]4C3)c3c2n2c(csc12)CO3 [Example 2] | ≤ 0.015 µg/mL | ≤ 0.015 µg/mL | 0.03 µg/mL (≈ 0.0722 µM) | 0.03 µg/mL (≈ 0.0722 µM) | ≤ 0.015 µg/mL | ≤ 0.015 µg/mL | 0.125 µg/mL (≈ 0.301 µM) | ≤ 0.015 µg/mL | ≤ 0.015 µg/mL | ≤ 0.015 µg/mL | 0.5 µg/mL (≈ 1.2 µM) | 32 µg/mL (≈ 77 µM)
2 | NC1C=CCC2CN(c3c(F)cc4c(=O)c(C(=O)O)c5scc6n5c4c3OC6)CC12 (stereo not drawn) [Example 4, 8-(2-Amino-8-azabicyclo[4.3.0]non-3-en-8-yl)-7-fluoro-5-oxo-9,1-(epoxymethano)-5H-thiazolo[3,2-a]quinoline-4-carboxylic acid] | ≤ 0.015 µg/mL | ≤ 0.015 µg/mL | ≤ 0.015 µg/mL | ≤ 0.015 µg/mL | ≤ 0.015 µg/mL | ≤ 0.015 µg/mL | ≤ 0.015 µg/mL | ≤ 0.015 µg/mL | ≤ 0.015 µg/mL | ≤ 0.015 µg/mL | 0.06 µg/mL (≈ 0.14 µM) | 0.25 µg/mL (≈ 0.585 µM)
3 | CC1C=CC(N)C2CN(c3c(F)cc4c(=O)c(C(=O)O)c5scc6n5c4c3OC6)CC12 (stereo not drawn) [Example 5, 8-(2-Amino-5-methyl-8-azabicyclo[4.3.0]non-3-en-8-yl)-7-fluoro-5-oxo-9,1-(epoxymethano)-5H-thiazolo[3,2-a]quinoline-4-carboxylic acid] | ≤ 0.015 µg/mL | ≤ 0.015 µg/mL | ≤ 0.015 µg/mL | ≤ 0.015 µg/mL | ≤ 0.015 µg/mL | ≤ 0.015 µg/mL | ≤ 0.015 µg/mL | ≤ 0.015 µg/mL | ≤ 0.015 µg/mL | ≤ 0.015 µg/mL | 0.06 µg/mL (≈ 0.136 µM) | 0.5 µg/mL (≈ 1.13 µM)
4 | CNC1C=CCC2CN(c3c(F)cc4c(=O)c(C(=O)O)c5scc6n5c4c3OC6)CC21 (stereo not drawn) [Example 3, 7-Fluoro-8-(2-methylamino-8-azabicyclo[4.3.0]non-3-en-8-yl)-5-oxo-9,1-(epoxymethano)-5H-thiazolo[3,2-a]quinoline-4-carboxylic acid] | ≤ 0.015 µg/mL | ≤ 0.015 µg/mL | ≤ 0.015 µg/mL | ≤ 0.015 µg/mL | ≤ 0.015 µg/mL | ≤ 0.015 µg/mL | ≤ 0.015 µg/mL | ≤ 0.015 µg/mL | ≤ 0.015 µg/mL | ≤ 0.015 µg/mL | 0.06 µg/mL (≈ 0.136 µM) | 0.5 µg/mL (≈ 1.13 µM)
